Assay results taken from US9732093B2, “FLAP modulators” (JANSSEN PHARMACEUTICA NV, priority 2013, dated 2017).

Biological target: human FLAP (Homo sapiens (Human), UniProt P20292)
Assay: FLAP binding assay (HTRF format)
Conditions: human FLAP wild type membranes, HTRF format; Table 6 (additional runs)
Description: The ability of the compounds of the present invention to treat a FLAP-mediated disease and/or disorder, or associated symptoms or complications thereof, was determined using the following procedures. Binding assay data represent the average value obtained from two different assay plates, with samples run in duplicate on each plate. Human whole blood assay data represent a single replicate on an assay plate using whole blood from at least one healthy donor.
Data are expressed as a HTRF ratio.

Chain of human FLAP (P20292 whole entry): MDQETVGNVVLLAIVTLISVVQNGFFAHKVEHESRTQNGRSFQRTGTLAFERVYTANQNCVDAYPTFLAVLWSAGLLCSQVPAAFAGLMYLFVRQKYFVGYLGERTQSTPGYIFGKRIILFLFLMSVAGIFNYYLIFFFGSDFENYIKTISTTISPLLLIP

Structure (SMILES)	Ki
Nc1cnc(-c2ccc(C3CCC3)c(Oc3nccc(-c4ccccc4)n3)c2F)cn1 [Example 87, 5-{4-Cyclobutyl-2-fluoro-3-[(4-phenylpyrimidin-2-yl)oxy]phenyl}pyrazin-2-amine]	2.1 nM
CC(C)(C)OC(=O)N1CCC(COc2c(C3CCC3)ccc(-c3cnc(N)cn3)c2F)CC1 [Example 74, tert-Butyl 4-{[3-(5-aminopyrazin-2-yl)-6-cyclobutyl-2-fluorophenoxy]methyl}piperidine-1-carboxylate]	175 nM
NC(=O)c1ccccc1COc1c(C2CCC2)ccc(-c2cnc(N)cn2)c1F [Compound 19, 2-{[3-(5-Aminopyrazin-2-yl)-6-cyclobutyl-2-fluorophenoxy]methyl}benzamide]	3.8 nM
Nc1cnc(-c2ccc(C3CCC3)c(Oc3ncccc3C(F)(F)F)c2F)cn1 [Example 121, 5-(4-Cyclobutyl-2-fluoro-3-{[3-(trifluoromethyl)pyridin-2-yl]oxy}phenyl)pyrazin-2-amine]	7.2 nM
NC(=O)c1cccc(COc2c(C3CCC3)ccc(-c3cnc(N)cn3)c2F)c1 [Compound 17, 3-{[3-(5-Aminopyrazin-2-yl)-6-cyclobutyl-2-fluorophenoxy]methyl}benzamide]	12.5 nM
Nc1cnc(-c2ccc(C3CCC3)c(OCc3cc(S(F)(F)(F)(F)F)ccc3F)c2F)cn1 [Example 77, 5-(4-Cyclobutyl-2-fluoro-3-{[2-fluoro-5-(pentafluoro-lambda˜6˜-sulfanyl)benzyl]oxy}phenyl)pyrazin-2-amine]	~200 nM
Nc1cnc(-c2ccc(C3CCC3)c(Oc3ccnc(C(F)(F)F)n3)c2F)cn1 [Example 124, 5-(4-Cyclobutyl-2-fluoro-3-{[2-(trifluoromethyl)pyrimidin-4-yl]oxy}phenyl)pyrazin-2-amine]	2.8 nM
Nc1cnc(-c2ccc(Cl)c(OCc3ccccc3)c2F)cn1 [Example 216, 5-[3-(Benzyloxy)-4-chloro-2-fluorophenyl]pyrazin-2-amine]	714 nM
COc1c(C2CCC2)ccc(-c2cnc(N)cn2)c1F [A, 5-(4-Cyclobutyl-2-fluoro-3-methoxyphenyl)pyrazin-2-amine]	52.6 nM
CS(=O)(=O)c1cccc(COc2c(C3CCC3)ccc(-c3cnc(N)cn3)c2F)c1 [Compound 6, 5-(4-Cyclobutyl-2-fluoro-3-{[3-(methylsulfonyl)benzyl]oxy}phenyl)pyrazin-2-amine]	13.6 nM
COc1cnc(Oc2c(C3CCC3)ccc(-c3cnc(N)cn3)c2F)nc1 [Example 94, 5-{4-Cyclobutyl-2-fluoro-3-[(5-methoxypyrimidin-2-yl)oxy]phenyl}pyrazin-2-amine]	44.5 nM
Nc1cnc(-c2ccc(C3CCC3)c(OCc3ccccc3)c2)cn1 [Example 217, 5-[3-(Benzyloxy)-4-cyclobutylphenyl]pyrazin-2-amine]	1040 nM
CCc1ccc(-c2cnc(N)cn2)c(F)c1Oc1ncccn1 [Example 316, 5-[4-Ethyl-2-fluoro-3-(pyrimidin-2-yloxy)phenyl]pyrazin-2-amine]	1360 nM
CC(C)(C)OC(=O)N1CCCC(COc2c(C3CCC3)ccc(-c3cnc(N)cn3)c2F)C1 (stereo not shown) [Example 249, tert-Butyl 3-((3-(5-aminopyrazin-2-yl)-6-cyclobutyl-2-fluorophenoxy)methyl)piperidine-1-carboxylate]	282 nM
N#Cc1ccccc1COc1c(C2CCC2)ccc(-c2cnc(N)cn2)c1F [Compound 18, 2-{[3-(5-Aminopyrazin-2-yl)-6-cyclobutyl-2-fluorophenoxy]methyl}benzonitrile]	59 nM
Nc1cnc(-c2ccc(C3CCC3)c(OCc3cc(Cl)ccc3Cl)c2F)cn1 [Compound 38, 5-{4-Cyclobutyl-3-[(2,5-dichlorobenzyl)oxy]-2-fluorophenyl}pyrazin-2-amine]	~250 nM
N#Cc1cccc(COc2c(C3CCC3)ccc(-c3cnc(N)cn3)c2F)c1 [Compound 16, 3-{[3-(5-Aminopyrazin-2-yl)-6-cyclobutyl-2-fluorophenoxy]methyl}benzonitrile]	19.9 nM
Nc1cnc(-c2ccc(C3CCC3)c(Oc3nccc(-c4cccs4)n3)c2F)cn1 [Example 91, 5-{4-Cyclobutyl-2-fluoro-3-[(4-thiophen-2-ylpyrimidin-2-yl)oxy]phenyl}pyrazin-2-amine]	0.8 nM
Nc1cnc(-c2ccc(C3CCC3)c(Oc3ccc(C(=O)O)cn3)c2F)cn1 [Example 154, 6-[3-(5-Aminopyrazin-2-yl)-6-cyclobutyl-2-fluorophenoxy]pyridine-3-carboxylic acid]	17.6 nM
CC(C)(C)c1ccc(-c2cnc(N)cn2)cc1OCc1ccccc1 [Example 215, 5-[3-(Benzyloxy)-4-tert-butylphenyl]pyrazin-2-amine]	705 nM
Nc1cnc(-c2ccc(C3CCC3)c(Oc3ccnc(Cl)n3)c2F)cn1 [Example 137, 5-{3-[(2-Chloropyrimidin-4-yl)oxy]-4-cyclobutyl-2-fluorophenyl}pyrazin-2-amine]	4.3 nM
COc1cc(Oc2c(C(C)(C)C)ccc(-c3cnc(N)cn3)c2F)ncn1 [Example 204, 5-{4-tert-Butyl-2-fluor-3-[(6-methoxypyrimidin-4-yl)oxy]phenyl}pyrazin-2-amine]	8.5 nM
CC(C)c1ccnc(Oc2c(C3CCC3)ccc(-c3cnc(N)cn3)c2F)n1 [Example 90, 5-(4-Cyclobutyl-2-fluoro-3-{[4-(1-methylethyl)pyrimidin-2-yl]oxy}phenyl)pyrazin-2-amine]	53.8 nM
CCc1ccc(-c2cnc(N)cn2)c(F)c1O [Example 333, 3-(5-Aminopyrazin-2-yl)-6-ethyl-2-fluorophenol]	421 nM
N#Cc1cc(Oc2c(C3CCC3)ccc(-c3cnc(N)cn3)c2F)ccn1 [Example 109, 4-[3-(5-Aminopyrazin-2-yl)-6-cyclobutyl-2-fluorophenoxy]pyridine-2-carbonitrile]	11.2 nM

Results, then the molecule that gave them:

Ki	Structure (SMILES)
787 nM	Nc1cnc(-c2ccc(C3CCC3)c(OCC(=O)O)c2F)cn1 [Example 50, [3-(5-Aminopyrazin-2-yl)-6-cyclobutyl-2-fluorophenoxy]acetic acid]
34.2 nM	Cc1nc(COc2c(C3CCC3)ccc(-c3cnc(N)cn3)c2F)no1 [Example 70, 5-{4-Cyclobutyl-2-fluoro-3-[(5-methyl-1,2,4-oxadiazol-3-yl)methoxy]phenyl}pyrazin-2-amine]
13.6 nM	N#Cc1ncccc1Oc1c(C2CCC2)ccc(-c2cnc(N)cn2)c1F [Example 112, 3-[3-(5-Aminopyrazin-2-yl)-6-cyclobutyl-2-fluorophenoxy]pyridine-2-carbonitrile]
4.6 nM	Cc1nccc(Oc2c(C3CCC3)ccc(-c3cnc(N)cn3)c2F)n1 [Example 134, 5-{4-Cyclobutyl-2-fluoro-3-[(2-methylpyrimidin-4-yl)oxy]phenyl}pyrazin-2-amine]
4.7 nM	CS(=O)(=O)c1ccnc(Oc2c(C3CCC3)ccc(-c3cnc(N)cn3)c2F)n1 [Example 95, 5-(4-Cyclobutyl-2-fluoro-3-{[4-(methylsulfonyl)pyrimidin-2-yl]oxy}phenyl)pyrazin-2-amine]
33.5 nM	Nc1cnc(-c2ccc(C3CCC3)c(OCc3ccccc3F)c2F)cn1 [Compound 30, 5-{4-Cyclobutyl-2-fluoro-3-[(2-fluorobenzyl)oxy]phenyl}pyrazin-2-amine]
27.1 nM	Nc1cnc(-c2ccc(C3CCC3)c(OCc3cccnc3)c2F)cn1 [Compound 13, 5-[4-Cyclobutyl-2-fluoro-3-(pyridin-3-ylmethoxy)phenyl]pyrazin-2-amine]
6.2 nM	Cc1cc(N)nc(Oc2c(C3CCC3)ccc(-c3cnc(N)cn3)c2F)n1 [Example 86, 2-[3-(5-Aminopyrazin-2-yl)-6-cyclobutyl-2-fluorophenoxy]-6-methylpyrimidin-4-amine]
3.7 nM	Nc1cnc(-c2ccc(C3CCC3)c(OCc3ccc(CC(=O)O)cc3)c2F)cn1 [Compound 23, (4-{[3-(5-Aminopyrazin-2-yl)-6-cyclobutyl-2-fluorophenoxy]methyl}phenyl)acetic acid]
275 nM	CCOC(=O)c1ccc(COc2c(C3CCC3)ccc(-c3cnc(N)cn3)c2F)o1 [Example 73, Ethyl 5-{[3-(5-aminopyrazin-2-yl)-6-cyclobutyl-2-fluorophenoxy]methyl}furan-2-carboxylate]
5.5 nM	Nc1cnc(-c2ccc(C3CCC3)c(Oc3cc(C4CC4)ncn3)c2F)cn1 [Example 141, 5-{4-Cyclobutyl-3-[(6-cyclopropylpyrimidin-4-yl)oxy]-2-fluorophenyl}pyrazin-2-amine]
~89.9 nM	CC(=O)c1ccc(COc2c(C3CCC3)ccc(-c3cnc(N)cn3)c2F)cc1 [Compound 12, 1-(4-{[3-(5-Aminopyrazin-2-yl)-6-cyclobutyl-2-fluorophenoxy]methyl}phenyl)ethanone]
~134 nM	CC(C)(C)OC(=O)COc1c(C2CCC2)ccc(-c2cnc(N)cn2)c1F [Example 49, tert-Butyl [3-(5-aminopyrazin-2-yl)-6-cyclobutyl-2-fluorophenoxy]acetate]
3.9 nM	N#Cc1nc(N)cnc1-c1ccc(C2CCC2)c(OCc2cccc(C(=O)O)c2)c1F [Example 174, 3-{[3-(5-Amino-3-cyanopyrazin-2-yl)-6-cyclobutyl-2-fluorophenoxy]methyl}benzoic acid]
5.3 nM	Cc1cc(C)nc(Oc2c(C3CCC3)ccc(-c3cnc(N)cn3)c2F)n1 [Example 89, 5-{4-Cyclobutyl-3-[(4,6-dimethylpyrimidin-2-yl)oxy]-2-fluorophenyl}pyrazin-2-amine]
24.6 nM	Nc1cnc(-c2ccc(C3CCC3)c(OCc3cccc(F)c3)c2F)cn1 [Compound 29, 5-{4-Cyclobutyl-2-fluoro-3-[(3-fluorobenzyl)oxy]phenyl}pyrazin-2-amine]
5.2 nM	COc1ccnc(Oc2c(C3CCC3)ccc(-c3cnc(N)cn3)c2F)n1 [Example 93, 5-{4-Cyclobutyl-2-fluoro-3-[(4-methoxypyrimidin-2-yl)oxy]phenyl}pyrazin-2-amine]
2.6 nM	N#Cc1cccnc1Oc1c(C2CCC2)ccc(-c2cnc(N)cn2)c1F [Example 110, 2-[3-(5-Aminopyrazin-2-yl)-6-cyclobutyl-2-fluorophenoxy]pyridine-3-carbonitrile]
